Test results published in patent publication US11724992B2 (Novartis AG, priority 2017, dated 2023).

Test system: IL-1β production in PMA-differentiated THP-1 cells
Assay: IL-1β production in PMA-differentiated THP-1 cells stimulated with gramicidin (hTHP-1 assay, 2% fetal bovine serum; Procedures 1-3)
Type: cell-based, human
Details: hTHP-1 assay containing 2% fetal bovine serum; class symbols; read-out: hTHP-1 IC50 (Average IC50 of compounds in hTHP-1 assay)
How it was run: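 PMA-differentiated (20 ng/ml, 16-18 h) THP-1 cells in RPMI with 2% FBS, 50,000 cells/well, preincubated 1 h with compound (final 100–0.0017 μM, 0.37% DMSO), then stimulated with 5 μM gramicidin for 2 h. Supernatant IL-1β measured by HTRF.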

IC50	Structure (SMILES)
1000 to 5000 nM	CC(C)(O)c1ncc(S(N)(=O)=NC(=O)Nc2c3c(cc4c2CCC4=O)CCC3)s1 (single isomer, unassigned) [Example 335, (S) or (R)-2-(2-Hydroxypropan-2-yl)-N′-((1-oxo-1,2,3,5,6,7-hexahydro-s-indacen-4-yl)carbamoyl)thiazole-5-sulfonimidamide from Example 293]
200 to 1000 nM	CC(C)(O)c1ncc(S(N)(=O)=NC(=O)Nc2c3c(cc4c2CCC4=O)CCC3)s1 (single isomer, unassigned) [Example 336, (R) or (S)-2-(2-Hydroxypropan-2-yl)-N′-((1-oxo-1,2,3,5,6,7-hexahydro-s-indacen-4-yl)carbamoyl)thiazole-5-sulfonimidamide from Example 293]
< 8 nM	CC(C)(O)c1csc(S(N)(=O)=NC(=O)Nc2c3c(cc4c2CC4)CCC3)n1 (single isomer, unassigned) [Example 341, (R) or (S)-4-(2-hydroxypropan-2-yl)-N′-((2,4,5,6-tetrahydro-1H-cyclobuta[f]inden-3-yl)carbamoyl)thiazole-2-sulfonimidamide]
200 to 1000 nM	CC(C)(O)c1csc(S(N)(=O)=NC(=O)Nc2c3c(cc4c2CC4)CCC3)n1 (single isomer, unassigned) [Example 342, (R) or (S)-4-(2-hydroxypropan-2-yl)-N′-((2,4,5,6-tetrahydro-1H-cyclobuta[f]inden-3-yl)carbamoyl)thiazole-2-sulfonimidamide]
200 to 1000 nM	Cc1nc(C(C)(C)O)ccc1S(N)(=O)=NC(=O)Nc1c2c(cc3c1CCC3)CCC2 (single isomer, unassigned) [Example 345, (R) or (S)-N′-((1,2,3,5,6,7-hexahydro-s-indacen-4-yl)carbamoyl)-6-(2-hydroxypropan-2-yl)-2-methylpyridine-3-sulfonimidamide]
5000 to 30000 nM	Cc1nc(C(C)(C)O)ccc1S(N)(=O)=NC(=O)Nc1c2c(cc3c1CCC3)CCC2 (single isomer, unassigned) [Example 346, (R) or (S)-N′-((1,2,3,5,6,7-hexahydro-s-indacen-4-yl)carbamoyl)-6-(2-hydroxypropan-2-yl)-2-methylpyridine-3-sulfonimidamide]
8 to 40 nM	CC(C)(O)c1cnc(S(N)(=O)=NC(=O)Nc2c3c(cc4c2CCO4)CCC3)s1 (single isomer, unassigned) [Example 347, (R) or (S)-5-(2-hydroxypropan-2-yl)-N′-((3,5,6,7-tetrahydro-2H-indeno[5,6-b]furan-4-yl)carbamoyl)thiazole-2-sulfonimidamide]
1000 to 5000 nM	CC(C)(O)c1cnc(S(N)(=O)=NC(=O)Nc2c3c(cc4c2CCO4)CCC3)s1 (single isomer, unassigned) [Example 348, (S) or (R)-5-(2-hydroxypropan-2-yl)-N′-((3,5,6,7-tetrahydro-2H-indeno[5,6-b]furan-4-yl)carbamoyl)thiazole-2-sulfonimidamide]
1000 to 5000 nM	CC(C)(O)c1csc(S(N)(=O)=NC(=O)Nc2c3c(cc4c2OCC4)CCC3)n1 (single isomer, unassigned) [Example 353, (S) or (R)-4-(2-hydroxypropan-2-yl)-N′-((3,5,6,7-tetrahydro-2H-indeno[5,6-b]furan-8-yl)carbamoyl)thiazole-2-sulfonimidamide]
8 to 40 nM	CC(C)(O)c1csc(S(N)(=O)=NC(=O)Nc2c3c(cc4c2OCC4)CCC3)n1 (single isomer, unassigned) [Example 354, (R) or (S)-4-(2-hydroxypropan-2-yl)-N′-((3,5,6,7-tetrahydro-2H-indeno[5,6-b]furan-8-yl)carbamoyl)thiazole-2-sulfonimidamide]
< 8 nM	CC(C)(O)c1ncc(S(N)(=O)=NC(=O)Nc2c3c(cc4c2CC4)CC3)s1 (single isomer, unassigned) [Example 355, (R) or (S)-2-(2-hydroxypropan-2-yl)-N′-(tricyclo[6.2.0.03,6]deca-1,3(6),7-trien-2-ylcarbamoyl)thiazole-5-sulfonimidamide]

Further lines, the compound ahead of its results:

Structure (SMILES)	IC50
CC1CCc2cc3c(c(NC(=O)N=S(N)(=O)c4cnc(C(C)(C)O)s4)c21)CCC3 (single isomer, unassigned) [Example 332, (R,R) or (R,S)-2-(2-hydroxypropan-2-yl)-N′-((3-methyl-1,2,3,5,6,7-hexahydro-s-indacen-4-yl)carbamoyl)thiazole-5-sulfonimidamide]	200 to 1000 nM
CC1CCc2cc3c(c(NC(=O)N=S(N)(=O)c4cnc(C(C)(C)O)s4)c21)CCC3 (single isomer, unassigned) [Example 333, (S,R) or (S,S)-2-(2-hydroxypropan-2-yl)-N′-((3-methyl-1,2,3,5,6,7-hexahydro-s-indacen-4-yl)carbamoyl)thiazole-5-sulfonimidamide]	1000 to 5000 nM
CC1CCc2cc3c(c(NC(=O)N=S(N)(=O)c4cnc(C(C)(C)O)s4)c21)CCC3 (single isomer, unassigned) [Example 334, (R,S) or (R,R)-2-(2-hydroxypropan-2-yl)-N′-((3-methyl-1,2,3,5,6,7-hexahydro-s-indacen-4-yl)carbamoyl)thiazole-5-sulfonimidamide]	8 to 40 nM
CC(C)(O)c1ncc(S(N)(=O)=NC(=O)Nc2c3c(cc4c2OCC4)CCC3)s1 (single isomer, unassigned) [Example 343, (R) or (S)-2-(2-hydroxypropan-2-yl)-N′-((3,5,6,7-tetrahydro-2H-indeno[5,6-b]furan-8-yl)carbamoyl)thiazole-5-sulfonimidamide]	40 to 200 nM
CC(C)(O)c1ncc(S(N)(=O)=NC(=O)Nc2c3c(cc4c2OCC4)CCC3)s1 (single isomer, unassigned) [Example 344, (R) or (S)-2-(2-hydroxypropan-2-yl)-N′-((3,5,6,7-tetrahydro-2H-indeno[5,6-b]furan-8-yl)carbamoyl)thiazole-5-sulfonimidamide]	1000 to 5000 nM
CC(C)(O)c1cnc(S(N)(=O)=NC(=O)Nc2c3c(cc4c2OCC4)CCC3)s1 (single isomer, unassigned) [Example 349, (S) or (R)-5-(2-hydroxypropan-2-yl)-N′-((3,5,6,7-tetrahydro-2H-indeno[5,6-b]furan-8-yl)carbamoyl)thiazole-2-sulfonimidamide]	1000 to 5000 nM
CC(C)(O)c1cnc(S(N)(=O)=NC(=O)Nc2c3c(cc4c2OCC4)CCC3)s1 (single isomer, unassigned) [Example 350, (R) or (S)-5-(2-hydroxypropan-2-yl)-N′-((3,5,6,7-tetrahydro-2H-indeno[5,6-b]furan-8-yl)carbamoyl)thiazole-2-sulfonimidamide]	40 to 200 nM
CC(C)(O)c1cnc(S(N)(=O)=NC(=O)Nc2c3c(c(Br)c4c2CCC4)CCC3)s1 (single isomer, unassigned) [Example 351, (S) or (R)-N′-((8-bromo-1,2,3,5,6,7-hexahydro-s-indacen-4-yl)carbamoyl)-5-(2-hydroxypropan-2-yl)thiazole-2-sulfonimidamide]	200 to 1000 nM
CC(C)(O)c1cnc(S(N)(=O)=NC(=O)Nc2c3c(c(Br)c4c2CCC4)CCC3)s1 (single isomer, unassigned) [Example 352, (R) or (S)-N′-((8-bromo-1,2,3,5,6,7-hexahydro-s-indacen-4-yl)carbamoyl)-5-(2-hydroxypropan-2-yl)thiazole-2-sulfonimidamide]	40 to 200 nM
